According to US6649610B1, “2-oxo-1, 4-benzoxazine compounds for treatment of tuberculosis” (priority 2001, dated 2003):

How the values were obtained:
[1] = system: human and non-human myeloma; assay: Activity against myeloma
white mice = assay: Animal toxicity bioassay (acute toxicity, intraperitoneal); format: in vivo; details: intraperitoneal injection, observed 14 days
Experimental: (§1) Animal Toxicity Bioassay. Acute toxicity was studied on white mice of both sexes with weight ranging between 18-26 grams under intraperitoneal injection of 2% solution of tested compound in starch (the compound was dissolved in starch slime and injected) on the basis of 0.1 ml of solution per 10 g of the animal weight. Each dose was tested on the group of 6 animals that were observed during 14 day period. (This method was approved by the Pharmacology committee of Russian Ministry of Health and has been widely used since 1968.) Averaged lethal dose (LD50) of the compound was computed using results of experiments on 5-7 groups of animals using the method of Litchfield and Wilkinson. (Belenkii M. L. “Elements of quantative determination of the pharmacological effect,” Leningrad, 1963, 71 pages).

[2] = system: M. tuberculosis ATCC 25177; assay: BACTEC 460 radiometric growth inhibition bio-assay; format: cell-based, Mycobacterium tuberculosis; details: final concentration of 0.1 mg/ml; BACTEC 12B medium; growth index
[3] = Animal toxicity bioassay (acute toxicity, intraperitoneal); format: in vivo; details: both sexes, mouse, in vivo, ip; white mice, intraperitoneal injection, observed 14 days
Experimental: as §1

white mouse = details: intraperitoneal injection; cited from earlier work
man = details: cited from earlier work

Row | Compound | activity against human and non-human myeloma [1] | LD50 (white mice) | percent activity against Mycobacterium tuberculosis [2] | LD50 at 14 day [3] | LD50 (lethal dose 50 percent kill) (white mouse) | acute ingestion amount leading to mild toxicity (man; adults, acute ingestion) | ingestion amount that may be fatal (man; adults, acute ingestion) | ingestion amount usually fatal if not appropriately treated (man; adults, acute ingestion) | overall mortality rate for acute isoniazid toxicity (man; estimated) | hepatitis-related death rate (man; individuals who complete a full course of prophylaxis) | mortality rate (man; individuals who develop overt isoniazid-induced hepatitis) | LCL0 (lowest published lethal concentration) (man; man) | overall hepatitis-related death rate (man; patients using isoniazid prophylaxis)
1 | O=C(Oc1c(-c2nc3ccccc3oc2=O)c(=O)n2c(c1C(=O)c1ccccc1)c(=O)oc1ccccc12)c1ccccc1 [1F-18, 4-benzoyl-3-benzoyloxy-2-(2-oxo-2H-1,4-benzoxazin-3-yl)pyrido[2,1-c][1,4]benzoxazin-1,5-dione] | 100% | > 2000 mg/kg | 95% | – | – | – | – | – | – | – | – | – | –
2 | COc1ccc(C(=O)C(C(=O)Oc2c(C)cc(C)cc2C)=C2Nc3ccccc3OC2=O)cc1 [1F-19, 2,4,6-trimethylphenyl 2-(3,4-dihydro-2-oxo-2H-1,4-benzoxazin-3-ylidene)-3-p-methoxyphenyl-3-oxo-propanoate] | – | – | 97% | > 1000 mg/kg | – | – | – | – | – | – | – | – | –
3 | NNC(=O)c1ccncc1 [isoniazid, isonicotinic acid hydrazide] | – | – | – | – | 100 mg/kg | 1.5 g | 6 to 10 g | 15 g | 19% | 23.2-57.9 /100,000 | 10% | 100 mg/kg | approximately 0.001%
